Experimental findings from patent US11548891B1, “Quaternary ammonium salts of phenanthroindolizidine and phenanthroquinolizidine alkaloids as hypoxia-targeted anticancer agents” (BATTERJEE MEDICAL COLLEGE, priority 2022, dated 2023) are described below.

The structures appear in SMILES notation. Like-named read-outs stand apart in the source and are kept apart here.

The IC50 is the concentration at which inhibition is half-maximal. As usually defined, the melting point is the temperature of the solid-liquid transition.

Data set [1] can be described thus: BBB-Parallel Artificial Membrane Permeability Assay (BBB-PAMPA). Format: in vitro ADME. Here is the method: The physicochemical properties of the new compounds were evaluated (Table 1). […] Consequently, these derivatives lost their BBB penetrability, as predicted by the BBB-Parallel Artificial Membrane Permeability Assay (BBB-PAMPA), whereas their parent alkaloids had free passage through the BBB.
(§1) Water solubility, log D, and PAMPA-BBB were evaluated using the protocols as described in Omran, et. al. [Omran, Z., et. al., Chem. Pharm. Bull., 2019, 67, 1208-1210, incorporated herein by reference in its entirety].
(The PAMPA barrier holds no transporters, so it reflects passive diffusion.)

The subject of data set [2] is HCT116. The data set is described as follows: Cytotoxicity under normoxia and hypoxia (anaerobic chamber), HCT116. Format: cell-based, human. The conditions noted are these: for IC50: Homo sapiens, HCT-116, 4 h exposure. Here is the method:
(§2) The ability of the designed prodrugs to liberate the active alkaloids in hypoxic tumors was evaluated by testing them under hypoxic conditions using an anaerobic chamber. The three prodrugs 5a-c and their parent alkaloids as well as the reference compounds PR-104A, the parent alcohol form of the phosphate pre-prodrug PR-104, and evofosfamide were tested using the HCT116 and H460 cell lines under both normoxic and hypoxic conditions (Table 5). The prodrugs were much less cytotoxic than the parent drugs, in agreement with the results using the other cell lines described above (see FIG. 6).
(§3) The eight cell lines HEK293 (Human embryonic kidney 293), CHO-Kt (Chinese hamster ovary K1), MCF-7 cells (Human breast adenocarcinoma), HCT116 (human colorectal carcinoma), RKO (Human rectal carcinoma), SW480 (human colorectal carcinoma), H460 (Human lung cancer), and MRCS (Normal human fetal lung fibroblast), were obtained from the ATCC. The cell lines were routinely grown in alpha minimum essential medium (α-MEM) containing 5% fetal calf serum (FCS). The appropriate number of cells (HCT116=400 cells/well, H460 cells=600 cells/well) were seeded into 96-well plates under normoxic or hypoxic conditions. Cells were plated in 100 μL α-MEM containing 10% FCS, 10 mM D-Glucose and 0.2 mM 20-deoxycytidine. After incubation for 2 h, the compounds were added at the appropriate concentration and incubated for further 4 h. The cells were then washed three times with drug-free α-MEM (containing 5% FCS and pen/strep). The plates were then incubated for 5 days under normoxic conditions. The cells were stained with sulphorhodamine B to measure total cells as per the standard procedure described in Skehan, et. al. [Skehan, P., et. al., J. Natl. Cancer Inst., 1990, 82, 1107-1112, incorporated herein by reference in its entirety]. The IC50 was determined by interpolation as the compound concentration reducing staining to 50% of controls on the same plate as per the standard procedure described in Guise, et. al. [Guise, C. P., et. al., Biochem. Pharmacol., 2007, 74, 810-820, incorporated herein by reference in its entirety].

For another data set, the system named is SW480. Put plainly: Cytotoxicity under normoxia (MTT), SW480. The conditions noted are these: Homo sapiens, SW480, read-out: IC50 SW480. In kind it is cell-based, human. Here is the method:
(§4) The cytotoxicity of the compounds 5a-c and their parent alkaloids was evaluated by the 3-[4,5-dimethylthiazole-2-yl]-2,5-diphenyltetrazolium bromide (MTT) assay against 5 cancerous and 2 non-cancerous cell lines (Table 4).
as §3

The test system of the next data set is HEK293. The data set is described as follows: Cytotoxicity under normoxia (MTT), HEK293. Format: cell-based, Human. Particulars: Homo sapiens, HEK293, read-out: IC50 HEK293. Here is the method:
as §4, §3

The nature of a further data set: PBS (pH 7.4) solubility. In kind it is physicochemical. Here is the method: as §1
For a further data set, the system named is H460. Put plainly: Cytotoxicity under normoxia and hypoxia (anaerobic chamber), H460. In kind it is cell-based, Human. The conditions noted are these: for IC50: Homo sapiens, NCI-H460, 4 h exposure. Here is the method:
as §2, §3

The test system of a further data set is MRC5. The data set is described as follows: Cytotoxicity under normoxia (MTT), MRC5. Format: cell-based, human. Particulars: Homo sapiens, MRC5, read-out: IC50 MRC5. Here is the method: as §4, §3
The next data set can be described thus: LogD. In kind it is physicochemical. Here is the method: as §1
The next data set has as its system MCF7. The data set is described as follows: Cytotoxicity under normoxia (MTT), MCF7. In kind it is cell-based, Human. Particulars: Homo sapiens, MCF7, read-out: IC50 MCF7. Here is the method: as §4, §3
A further data set deals with CHO-K1. The data set is described as follows: Cytotoxicity under normoxia (MTT), CHO-K1. In kind it is cell-based, Chinese hamster. The conditions noted are these: Cricetulus griseus, CHO-K1, read-out: IC50 CHO-K1. Here is the method:
as §4, §3

The nature of data set [3]: Mouse microsomal liver stability assay. The conditions noted are these: male, Balb/c, mouse, 2 μM, pH 7.4. Here is the method:
Protoc. […] Microsomal incubations were carried out in 96-well plates in 5 aliquots of 40 μL each. […] Control incubations were performed by replacing the NADPH-cofactor system with PBS. The additional control incubations in PBS (with 3.3 mM MgCl2) without added microsomes were carried out in this study. […] The incubations were performed in duplicates. Five time points over 40 min had been analyzed. The reactions were stopped by adding 12 volumes of 90% acetonitrile-water to incubation aliquots, followed by protein sedimentation by centrifuging at 5500 rpm for 3 min. The supernatants were analyzed using LC-MS as mentioned above.

In another data set the test system is RKO. The data set is described as follows: Cytotoxicity under normoxia (MTT), RKO. The conditions noted are these: Homo sapiens, RKO, read-out: IC50 RKO. Format: cell-based, Human. Here is the method:
as §4, §3

The test system of data set [4] is HCT116. The data set is described as follows: Cytotoxicity under normoxia (MTT), HCT116. In kind it is cell-based, human. The conditions noted are these: Homo sapiens, HCT-116, read-out: IC50 HCT116. Here is the method:
as §4, §3

`COc1cc2c3c(c4cc(OC)c(OC)cc4c2cc1OC)C[N+]1(Cc2c([N+](=O)[O-])ncn2C)CCC[C@H]1C3.[Br-]` (stereo partly drawn) [Compound 5b, (13aS)-2,3,6,7-tetramethoxy-10-((1-methyl-4-nitro-1H-imidazol-5-yl)methyl)-10,11,12,13,13a, 14-hexahydro-9H-dibenzo[f,h]pyrrolo[1,2-b]isoquinolin-10-ium bromide] gave a melting point of 165 to 167 °C. For the same molecule, in data set [1], the “Permeability (Papp) Log [10^−6 cm/s] Mean ± SE” value is less than −7 Log [10^−6 cm/s]. Besides, the “HCR (Hypoxia Cytotoxicity Ratio = normoxic IC50/hypoxic IC50)” value in the data set with HCT116 [2] came out at 11.3. For the same molecule, the “DR (Deactivation Ratio = IC50 (prodrug)/IC50 (parent drug))” value in the data set on HCT116 [2] (HTC 116, normoxia) is listed as 689. The IC50 in the data set with HCT116 [2] (HTC 116, hypoxia, read-out: IC50 (Hypoxia)) worked out at 1.46 µM. In the data set with HCT116 [2] (HTC 116, normoxia, read-out: IC50 (Normoxia)), the IC50 came to 4.49 µM. Besides, in the data set with SW480, the IC50 turned out to be 7.25 ± 0.49 µM. The IC50 with HEK293 was 0.95 ± 0.174 µM. Also, the “PBS (pH 7.4) Solubility μM Mean ± SE” value in “PBS (pH 7.4) solubility” was found to be 162 ± 3 μM. For the same molecule, in the data set on H460, the “HCR (Hypoxia Cytotoxicity Ratio = normoxic IC50/hypoxic IC50)” value stood at 24. Further, in the data set on H460 (H460, normoxia), the “DR (Deactivation Ratio = IC50 (prodrug)/IC50 (parent drug))” value came to 719. Besides, the IC50 in the data set on H460 (H460, hypoxia, read-out: IC50 (Hypoxia)) is 3.22 µM. Further, the IC50 with H460 (H460, normoxia, read-out: IC50 (Normoxia)) is 77.6 µM. Moreover, the concentration for half-maximal inhibition (IC50) with MRC5 worked out at 3.31 ± 0.163 µM. In addition, the “LogD Mean ± SE” value in the data set “LogD” came to 0.38 ± 0.04. In the data set with MCF7, the IC50 amounted to 1.5 ± 0.128 µM. Moreover, the half-inhibitory concentration (IC50) in the data set on CHO-K1 was 3.49 ± 0.843 µM. Besides, the “Kel, min^−1 (elimination rate constant)” value in data set [3] was 0.002 ± 0 min⁻¹. Moreover, in data set [3] (microsomes), the “compound metabolized into the parent drug” value is “less than 1%”. The IC50 in the data set on RKO is 4.06 ± 0.181 µM. Further, in the data set with HCT116 [4], the IC50 worked out at 3.3 ± 1.56 µM.
